{"source": "paper PMC7998563", "about": "(Viruses, 2021)", "target": "T1, HCMV core nuclear egress complex (core NEC), pUL50-pUL53 (Human herpesvirus 5 strain AD169, UniProt P16791+P16794)", "T1 construct": "gene NEC2; pUL50 His-tagged, pUL53 coated on plate; heterodimer", "T1 sequence (P16791 1-181)": "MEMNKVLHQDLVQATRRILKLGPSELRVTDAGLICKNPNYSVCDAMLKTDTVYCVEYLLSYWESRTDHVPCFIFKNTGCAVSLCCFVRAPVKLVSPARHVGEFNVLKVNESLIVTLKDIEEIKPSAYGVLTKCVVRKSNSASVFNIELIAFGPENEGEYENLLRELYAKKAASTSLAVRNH", "T1 sequence (P16794 50-292)": "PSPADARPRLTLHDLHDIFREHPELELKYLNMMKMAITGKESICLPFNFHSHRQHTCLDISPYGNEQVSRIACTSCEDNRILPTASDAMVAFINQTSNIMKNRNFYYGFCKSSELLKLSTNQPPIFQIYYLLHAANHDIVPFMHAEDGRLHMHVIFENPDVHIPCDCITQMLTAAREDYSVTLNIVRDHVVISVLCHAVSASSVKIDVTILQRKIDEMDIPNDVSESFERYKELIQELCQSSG", "assay": "ELISA-type pUL50-pUL53 interaction inhibition assay, anti-His-HRP detection", "format": "binding", "data": [{"compound": "O=C(O)c1ccccc1-c1c2cc(Br)c(=O)[c]([Hg+])c-2oc2cc(O)c(Br)cc12", "note": "[P10G08, merbromin]", "values": [{"measurement": "IC50", "value": 38, "unit": "nM"}]}]}
